In brackets after ≈: the same amount, converted by molar mass. Where two headings read alike, the source gives them in different places.
Assays:
physchem [1] = type: physicochemical
Mtb H37Rv [2] = experiment: Mouse model of highly acute TB; type: in vivo
physchem [3] = conditions: pH 7.4
Mtb H37Rv [4] = experiment: Mouse model of acute TB; type: in vivo; conditions: 4 weeks
Mtb ribosome = type: biochemical, Mycobacterium tuberculosis; conditions: read-out: Inhibition of Mtb translation (IC50 μM)
Mtb Erdman = experiment: Mouse model of chronic TB; type: in vivo; conditions: 300 mg/kg oral once daily
[5] = type: in vitro ADME
Mtb H37Rv [6] = experiment: MIC80 after overnight pre-incubation of Mtb with subinhibitory macrolide; type: cell-based; conditions: Mycobacterium tuberculosis, read-out: MIC80

Q: What does the source list for `CON=C1CC(C)OC(OC2C(C)CC(C)(OC(=O)NC(C)(C)CNS(=O)(=O)c3ccccc3)C(=O)C(C)C(OC(=O)CC(C)C)C(C)C(C(C)COC3OC(C)C(O)C(OC)C3OC)OC(=O)C(C)C(OC3CC(C)N(C)CC(C)O3)C2C)C1O` (stereo not shown) [SEQ-9]?
A: solubility (physchem [1]; MCT pH 7.4, read-out: Solubility: MCT@pH 7.4): 530 µg/mL (≈ 426 µM); solubility (physchem [1]; aqueous buffer, PBS pH 7.4, read-out: Solubility: PBS@pH 7.4): 51 µg/mL (≈ 41 µM); Decrease in CFU (Mtb H37Rv [2]; 100 mg/kg, lipid-based formulation): 2 log10; Reduction of mean lung CFU (Mtb H37Rv [2]; 300 mg/kg, after 2 weeks of treatment): 1.42 log10; Minimum effective dose (MED) (Mtb H37Rv [2]; lipid-based formulation): 100 mg/kg; logD (physchem [3]): 3.4; Survival of infected mice (Mtb H37Rv [4]; 37.5 to 300 mg/kg oral, 5 days per week, untreated controls died within 4 weeks): survived at all doses administered; Minimum effective dose (MED), complete prevention of bacterial growth (Mtb H37Rv [4]; oral, methylcellulose-Tween formulation): 300 mg/kg; IC50 (Mtb ribosome): 0.075 µM; log CFU reduction compared with pre-treatment CFU (Mtb Erdman): 1.7 log CFU; Metabolic stability in rat liver microsomes (% metabolized compound after 20 min) [5]: 9%; MIC80 (Mtb H37Rv [6]; Without induction): 1 µM (≈ 1.24 µg/mL); MIC80 (Mtb H37Rv [6]; overnight pre-incubation with SEQ-9 0.125µg/ml): 1 µM (≈ 1.24 µg/mL); MIC80 (Mtb H37Rv [6]; overnight pre-incubation with SEQ-9 0.25µg/ml): 1 µM (≈ 1.24 µg/mL); MIC80 (Mtb H37Rv [6]; overnight pre-incubation with clarithromycin 0.125µg/ml): 1 µM (≈ 1.24 µg/mL); MIC80 (Mtb H37Rv [6]; overnight pre-incubation with clarithromycin 0.25µg/ml): 1 µM (≈ 1.24 µg/mL)
